Measured values reported in US20140364454A1, “METAL-CHELATING COMPOUNDS HAVING AT LEAST ONE POLYAMINO CHAIN” (UNIVERSITE DE RENNES I, priority 2011, published 2014).

Legend:
[1] = Continuous variation method, absorption of the Quilamine-Fe(III) complex at 580 nm; assay type: physicochemical; conditions: physiological pH
Method: At physiological pH, the Quilamine forms a Quilamine-Fe(III) complex preferably having a ligand:metal stoichiometry of 2/1. The ligand:metal stoichiometry can for example be determined by the continuous variation method, using the characteristic transition in the absorption spectrum of the Quilamine-Fe(III) complex at 580 nm, for chelator and iron concentrations ranging from 0 to 500 micromoles per liter.
The interaction of Quilamine HQ1-44 with iron (Fe3+) was assessed by means of a characteristic transition at 580 nm, observed in the absorption spectrum of the complex of Quilamine HQ1-44 with Fe(III). The continuous variation method consist in measuring the quantity of complex formed between Quilamine and Fe(III) deduced from the value of absorption at 580 nm, in bringing about a variation of the ratio of the concentrations in Quilamine/Quilamine+Fe(III) for a total concentration of Quilamine+Fe(III) that is constant and equal to 100 micromoles per liter (Tris/HCl buffer 100 millimoles per liter, pH 7.4).

[2] = Potentiometry: stability constants and pFe3+ of the iron complex; assay type: physicochemical
Method: The complexation affinity of Quilamine with the metal ion in the organism reflects the chelating capacity or chelating power of Quilamine. This affinity can be assessed by measuring the value of pW corresponding to −log of the concentration in free metal ion W, i.e. non-complexated by the Quilamine for a ratio of respective concentrations of Quilamine (10 micromoles per liter) and metal ion (1 micromole per liter) equal to 10, at 25° C. and pH 7.4. The higher the value of pW, the greater the affinity of Quilamine with metal ion. The affinity of Quilamine with iron in its ferric form (Fe(III)) and its ferrous form (Fe(II)) is measured respectively by pFe^3+ and pFe^2+ at physiological pH (pH=7.4), at 25° C.
Potentiometry measurements were made in thermostated titration cells at 25±0.1° C., using a Metrohm 702 SM Titrino titrator connected to a Metrohm 6.0233.100. The ligand solution is prepared in a concentration of ˜1.5×10^−3 moles per liter, the solution of Fe^3+ is made from FeCl3 and titrated by complexation with a standard solution of EDTA (ethylenediaminetetracetic acid). The sample for the measurement contained approximately 0.03 millimoles per liter of ligand in a volume of 30 ml where the ionic strength is maintained at 0.1 mole per liter in using KNO3 as a support electrolyte. During the titrations, Fe^3+ is added to 0.45 or 0.9 equivalents of ligand. Each titration consists of 150-200 equilibrium points with pH varying from 2.0 to 11.5, and is repeated at least twice. The thermodynamic constants are computed with the software […] and the speciation diagram of the species is done by the Hyss program.

Caco-2 cells = experiment: LDH release of Caco-2 cells; assay type: cell-based, human; conditions: for influence of exogenous iron on the cytotoxic effect: Caco-2, after addition of exogenous iron; for % LDH/control 10 μM: Caco-2 J4, 10 μM; for % LDH/control 100 μM: Caco-2 J4, 100 μM
Method: The action of Quilamines on the cell viability was analyzed on enterocyte cells of the Caco-2 tumor cell line derived from human colon carcinoma and compared with the action of ICL670 in the presence or absence of exogenous iron, after activation (DFMO) or competitive inhibition by spermidine, of the PTS. The operating conditions used are identical to those used for CHO/CHO-MG and HepG2 cells.
As in the case of the other cell lines in proliferative phase presented here above, the dose-effect curves of the action of the Quilamines on the number of viable cells (number of nuclei) are biphase curves with a cytostatic constituent for concentration values of below 30 micromoles per liter and a cytotoxic constituent with release of LDH for concentration values above 30 micromoles per liter. Only this second cytotoxic constituent is observed when the cells of the Caco-2 cell line are treated after confluence (stopping of the proliferation).

[3] = test system: mutant cell line CHO-MG without PTS; experiment: Anti-proliferative effect on CHO-MG cells without PTS, counting of cell nuclei; assay type: cell-based, hamster; conditions: for IC50: 72 h treatment; for Ratio IC50 (CHO-MG/CHO): selectivity of recognition by the PTS
Source text: The IC50 inhibitor concentration corresponding to the concentration in Quilamines enables the inhibition at 50% of the cell proliferation was deduced from the dose-effect curves of numeration of the nuclei of the living cells on the CHO and CHO-MG cell lines. These dose-effect curves are sometimes bi-phase curves as in the case of Quilamine HQ1-44 which has an anti-proliferative constituent (without concomitant release of LDH in supernatant) in the range of concentrations of 0.4 to 3 micromoles per liter and a second cytotoxic constituent accompanied by membrane toxicity expressed by the release of LDH for concentrations of over […]. The lower the value of IC50, the greater the efficiency of the anti-proliferative effect of the tested chelators.
Furthermore, the ratio of the IC50 inhibitor concentrations found for the CHO-MG and the CHO cell lines (Ratio IC50 (CHO-MG/CHO)) was computed for several Quilamines according to the invention. This ratio makes it possible to estimate the selectivity of recognition of the different chelators by the PTS: the higher the ratio, the more clearly is the chelator recognized by the PTS. When this ratio is close to 1, the tested chelator is not recognized or is little recognized by the PTS.

HepG2 cells = experiment: Anti-proliferative effect on HepG2 cells (nuclei count or SDH activity); assay type: cell-based, human; conditions: HepG2, presence of exogenous iron
CHO cells = experiment: Cytotoxic effect on CHO cells, LDH release in supernatants; conditions: hamster, 72 h
Method: The in vitro efficacy of different Quilamines was tested on a wild cell line (CHO) of hamster ovarian cells having PTS and a mutant cell line CHO-MG without PTS. The two cell types CHO and CHO-MG were treated, 24 hours after being seeded in 96-well microplates, by concentrations of different Quilamines ranging from 0.1 to 400 micromoles per liter. The cytostatic (anti-proliferative) effects and cytotoxic effects of Quilamine after 72 hours' treatment of the cells were assessed respectively by counting cell nuclei after DNA marking by the Hoechst 33342 fluorescent intercalant dye and by analysis of membrane damage detected by the dosing of the lactate dehydrogenase activity (LHD) in the supernatants.
A comparison was made of the cytostatic or anti-proliferative action and the cytotoxic action for 72 h of treatment by Quilamine HQ1-44 and 8-hydroxyquinoline and ICL670, on the CHO cell lines in the presence and without the presence of exogenous iron, in the form of Fe(III) citrate in a concentration of 20 micromoles per liter. The results obtained are shown in FIG. 4, FIG. 4A relating to the results on cell viability and FIG. 4B relating to the results on cell toxicity.

SMILES	ligand/iron stoichiometry of the complex with Fe(III) [1]	Constant of stability (log K), species FeL ([2]; 25.0° C., I = 0.1 M in KNO3)	Constant of stability (log K), species FeL2 ([2]; 25.0° C., I = 0.1 M in KNO3)	Constant of stability (log K), species FeL2H ([2]; 25.0° C., I = 0.1 M in KNO3)	Constant of stability (log K), species FeL2H2 ([2]; 25.0° C., I = 0.1 M in KNO3)	Constant of stability (log K), species FeL2H3 ([2]; 25.0° C., I = 0.1 M in KNO3)	Constant of stability (log K), species FeL(OH) ([2]; 25.0° C., I = 0.1 M in KNO3)	Constant of stability (log K), species FeLH ([2]; 25.0° C., I = 0.1 M in KNO3)	Constant of stability (log K), species FeLH2 ([2]; 25.0° C., I = 0.1 M in KNO3)	pFe3+ ([2]; pH 7.4)	influence of exogenous iron on the cytotoxic effect (Caco-2 cells)	% LDH/control 10 μM (Caco-2 cells) [%]	% LDH/control 100 μM (Caco-2 cells) [%]	IC50 [3] [µM]	IC50 ([3]; CHO-MG, 72 h) [µM]	Ratio IC50 (CHO-MG/CHO) [3]	influence of exogenous iron on the cytostatic effect (HepG2 cells)	chelator concentration giving cytotoxic effect with release of LDH (CHO cells)
NCCCCNCCCCNCc1ccc2cccc(O)c2n1 [HQ1-44, 2-[4-(4-aminobutyl)aminobutyl]aminomethylquinolin-8-ol]	2/1	25.92	7.8	10.2	8.0	8.2	7.37	6.65	2.88	27	partially inhibited	118	287	344	344	249	–	–
O=C(O)c1ccc(-n2nc(-c3ccccc3O)nc2-c2ccccc2O)cc1 [ICL670, reference compound]	–	–	–	–	–	–	–	–	–	–	inhibition	117	130	–	8	1	inhibition	over 10 micromoles per liter
